Entries after “also recorded” stand apart in the source; their conditions may differ.
What was measured:
VEGF-C = biological target: T1, VEGF-C (Homo sapiens, UniProt P49767); experiment: Direct binding ELISA / BiaCore affinity of VGX-100; conditions: capture antigens VEGF-C, VEGF-D or VEGF
T1 construct: purchased R&D Systems
T1 sequence (P49767 112-227): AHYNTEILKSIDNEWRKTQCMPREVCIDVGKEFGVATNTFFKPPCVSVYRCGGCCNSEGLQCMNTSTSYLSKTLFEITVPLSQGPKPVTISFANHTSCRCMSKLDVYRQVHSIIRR
Description: VEGF-C antibody VGX-100 was assessed by a direct binding ELISA using VEGF-C, VEGF-D or VEGF (R&D Systems) as capture antigens and bound VGX-100 detected with rabbit anti-human IgG-HRP (Abcam).

[1] = biological target: T2, VEGF-C binding to the extracellular domain of VEGFR-2 (Homo sapiens, UniProt P49767); experiment: Ba/F3-VEGFR-2 bioassay of VEGF-C binding; type: cell-based; conditions: [3H]thymidine incorporation, 48 hrs
T2 construct: expressed in transfected cells; host or cells: Ba/F3 cells (BA/F3-VEGFR-2)
T2 sequence (P49767 112-227 limits assumed): T1 sequence (P49767 112-227)
Description: (§1) The binding of VEGF-C to the extracellular domain of VEGFR-2 or VEGFR-3 was measured using BA/F3-VEGFR-2 or -3/EpoR cells. The response to ligands and VGX-100 was measured by [^3H]-thymidine incorporation following exposure for 48 hrs.
(§2) Bioassays to measure the binding of VEGF-C to the extracellular domain of VEGFR-2 or VEGFR-3 were performed with BA/F3-VEGFR-2 or BA/F3-VEGFR-3/EpoR cells. The response to ligands and VGX-100 was measured by [^3H] thymidine incorporation following exposure for 48 hrs.

[2] = biological target: T3, VEGF-C binding to the extracellular domain of VEGFR-3 (Homo sapiens, UniProt P49767); experiment: Ba/F3-VEGFR-3/EpoR bioassay of VEGF-C binding; type: cell-based; conditions: [3H]thymidine incorporation, 48 hrs
T3 construct: expressed in transfected cells; host or cells: Ba/F3 cells (BA/F3-VEGFR-3/EpoR)
T3 sequence (P49767 112-227 limits assumed): T1 sequence (P49767 112-227)
Description: as §1, §2

[3] = tested on: VEGF-C stimulated HUVEC proliferation; experiment: HUVEC proliferation assay; type: cell-based; conditions: 48 hrs, WST-1
Description: HUVEC proliferation assays were conducted for 48 hrs and cell number measured with WST-1 reagent (Roche).

[4] = tested on: U87MG human glioblastoma tumors; experiment: U87MG glioblastoma xenograft, combination (Example 7); type: in vivo, nude mice; conditions: VGX-100 40 mg/kg, bevacizumab 10 mg/kg, administered alone
Description: This experiment was conducted broadly in accordance with Example 3, except that U87MG glioblastoma cells were substituted for PC-3 prostate cancer cells. Cells from a human glioblastoma tumor line (U87MG) were implanted subcutaneously into mice and grown until the tumors reached an average size of approximately 150 mg. […] There were 10 animals per treatment group.

[5] = tested on: PC-3-GFP human prostate tumors; experiment: PC-3-GFP orthotopic MetaMouse model (Example 13); type: in vivo
Description: PC-3-GFP human prostate cancer orthotopic MetaMouse® model was conducted by AntiCancer Inc. PC-3-GFP tumor fragments were surgically implanted between the ventral lobes of the prostate and closed by suture. Treatment was started three days after surgery (60 mg/kg, 3×/week, IP). Whole body imaging of GFP-expressing tumors was performed once a week in live animals after GFP-visible tumors were established. Primary tumor sizes were estimated once a week by caliper measurement and tumor volume (mm^3) calculated by the formula (L×W2)/2. Details of the study are as follows:
Male NCr nu/nu mice, 5-6 weeks old, were used in the study. Original breeding pairs were purchased from Taconic, Germantown, N.Y. Test animals were bred and maintained in a HEPA filtered environment for the experiment. Cages, food and bedding were autoclaved. The animal diets were obtained from PMI Nutrition International Inc. (Brentwood, Mo.).
Vehicle, VGX-100 and Isotype were kept at −20° C. until use. VGX-100 and Isotype were diluted with PBS to proper concentration (7.5 mg/ml and 7.5 mg/ml) before use.
Tumor stocks were made by subcutaneously injecting PC-3-GFP cells at a concentration of 5×10^6 cells/100 μl into the flank of nude mice. The tumor tissues harvested from s.c. growth in nude mice were inspected and any grossly necrotic or suspected necrotic or non-GFP tumor tissues were removed. Tumor tissues were subsequently cut into small fragments of approximately 1 mm^3.
The animals were anesthetized with the mixture of Ketaset, Xylazine and PromAce and the surgical area was sterilized using iodine and alcohol. An incision approximately 2 cm long was made in the lower abdomen of the nude mouse using a sterile scalpel and blade (#10). The prostate was exposed and the capsule of the prostate was carefully opened. Two fragments (1 mm^3 each) of PC-3-GFP tissue were sutured between two ventral lobes of the prostate with sterile 8-0 surgical suture (nylon). The abdomen was closed in one layer with sterile 6-0 surgical sutures (silk). All procedures were carried out under a 5× dissecting microscope under HEPA filtered laminar flow hoods.
Treatment in both groups was started three days after SOI.
The FluorVivo imaging system (INDEC Biosystems, Santa Clura, Calif.) was used for whole body imaging. Whole body optical imaging of GFP-expressing tumors was performed once a week in live animals after GFP-visible tumors were established. At necropsy, open imaging was performed in the thoracic and abdomen for inspection of metastasis to the lymph nodes.
Tumor size and body weight measurement: Primary tumor sizes and body weights were measured once a week by using a calipers and an electronic scale, respectively. Primary tumor sizes were estimated once a week by measuring the perpendicular minor dimension (W) and major dimension (L). Approximate tumor volume (mm^3) was calculated by the formula (W2×L)×1/2.
All the animals were sacrificed at day 30 after treatment initiation.
Primary tumor was excised and weighed at necropsy.
The Student's t-test with α equal to 0.05 was used to compare the mean tumor volume and tumor weight among the experimental groups.

[6] = tested on: KP4 human pancreatic tumors; experiment: KP4 pancreatic xenograft (Example 8); conditions: for % T/C: after 30 days
Description: VGX-100 was administered at 20 or 40 mg/kg for single therapy and at 40/mg/kg for combination therapy.
To initiate the study, 5×10^6 of KP4 cells suspended in 100 μl of a mixture of medium/Matrigel (1:1) were subcutaneously implanted to the nude mice in the right flank region. Cancer cells were implanted into 90 mice. Animals were monitored for tumor growth daily after cell implantation. When tumor volumes reached 80-100 mm^3, mice were randomized into 5 groups of 10 mice each using only mice having tumor volumes closest to the mean value. Mice with tumor volumes too big or too small were excluded from the study. Tumor volumes were measured using the formula V=L×W×H×π/6, where L and W represented the longer and shorter diameters of the tumor and H represented the height of the tumor. The treatment with drugs was initiated on the day after randomization. […] All treatments were administered intraperitoneally twice weekly for 30 days.
Throughout the entire study, tumor volumes were measured twice weekly and body weights once weekly. […] Unscheduled sacrifices were performed if tumor volumes reached>2,000 mm^3, animals lost>25% of their original body weights, tumor ulceration appeared, or mice became moribund. At the end of the experiment, tumors were removed, embedded in Optimal Cutting Temperature (OCT), and stored at −80° C. for IHC analysis. Gross examination was conducted on liver, lung, spleen, kidneys, testes, and prostate. If no abnormal observation was detected on these organs, the tissues were discarded.
Tumor size was measured 2-3 times weekly with calipers. Size of tumors relative to controls is calculated after 30 days of treatment.

[7] = VGX-100 40 mg/kg and/or Avastin 10 mg/kg

“VGX-100: VEGF-C antibody; heavy chain SEQ ID NO: 3, light chain SEQ ID NO: 4” was tested, and the “Binding selectivity in direct binding ELISA” value (VEGF-C) was “selectively recognized and bound to VEGF-C”, the “Blocking of VEGF-C binding to VEGFR-2” value [1] was “blocked VEGF-C binding” and the “Blocking of VEGF-C binding to VEGFR-3” value [2] was “blocked VEGF-C binding”. For the same substance, the “Inhibition of VEGF-C stimulated HUVEC proliferation” value [3] was “inhibited VEGF-C stimulated HUVEC proliferation”, the “Effect on tumor growth” value [4] was “no significant effect” and the “Reduction of incidence of metastasis to local lymph nodes vs control” value ([5]; 60 mg/kg IP) was 55%. For the same substance, the “Toxicity / body weight” value ([5]; 60 mg/kg IP 3x/week) was “no obvious toxicity; also recorded: No acute body weight loss”, the “Metastatic incidence to lymph nodes vs control” value ([5]; FOTI, Fisher's exact test) was “significant difference in metastatic incidence” and the “# of animals with lymph node (LN) mets” value ([5]; FOTI, of 19 analyzed animals, 60 mg/kg IP) was 6. The “Animals with lymph node (LN) mets, percent” value ([5]; FOTI, 60 mg/kg IP) was 32%, the “Tumor volume vs isotype control” value ([5]; day 28) was “statistically significant reduction” and the “Reduction of mean tumor volume vs isotype control” value ([5]; day 28, 60 mg/kg IP) was 59%. The “Mean tumor volume (mm^3) mean ± SE” value ([5]; day 28 after treatment, caliper, 60 mg/kg IP 3x/week) was 176.8 ± 183.2 mm^3, the “Tumor weight vs isotype control” value ([5]; day 30) was “A statistically significant reduction was not observed” and the “Mean tumor weight (g) mean ± SE” value ([5]; day 30 after treatment, 60 mg/kg IP) was 0.95 ± 0.45 g. The “Mean Tumor Vol. at D30 (mm3)” value ([6]; VGX-100 20 mg/kg) was 1492.77 mm3, the “Mean Tumor Vol. at D30 (mm3)” value [6, 7] was 693.24 mm3 and the “Mean Tumor Vol. at D30 (mm3)” value ([6]; VGX-100 60 mg/kg) was 958.93 mm3. The “% T/C” value ([6]; VGX-100 20 mg/kg) was 76.0%, the “% T/C” value [6, 7] was 35.3% and the “% T/C” value ([6]; VGX-100 60 mg/kg) was 48.8%.

From US20130344065A1, “Combination Treatment with VEGF-C Antagonists” (Vegenics Pty Ltd, priority 2010, published 2013)
